From ChEMBL document CHEMBL1201862, “PubChem BioAssay data set” (2004)
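In this assay, cells in 96-well plates receive the compound at five concentrations for 48 hours. Endpoints are linearly interpolated between the surrounding concentrations. GI50 = concentration required for 50% inhibition of growth.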 Active and inactive are the calls of the source. No stated cut-off is given here; in the data, active = GI50 up to about 1.1 µM and inactive = higher.

What was measured:
Test in all cases: NCI anticancer screen, dose series, 48 h
[1] = test system: 786-0
[2] = test system: A498
[3] = test system: A549
[4] = test system: ACHN
[5] = test system: CCRF-CEM
[6] = test system: COLO 205
[7] = test system: DLD-1
[8] = test system: DMS-114
[9] = test system: DMS-273
[10] = test system: EKVX
[11] = test system: HCC 2998
[12] = test system: HCT-116
[13] = test system: HCT-15
[14] = test system: HL-60
[15] = test system: HOP-62
[16] = test system: HT-29
[17] = test system: IGROV-1
[18] = test system: K562
[19] = test system: KM-20L2
[20] = test system: LOX IMVI
[21] = test system: LXFL 529
[22] = test system: M14
[23] = test system: M19-MEL
[24] = test system: MOLT-4
[25] = test system: Malme-3M
[26] = test system: NCI-H226
[27] = test system: NCI-H23
[28] = test system: NCI-H460
[29] = test system: OVCAR-3
[30] = test system: OVCAR-4
[31] = test system: OVCAR-8
[32] = test system: RPMI-8226
[33] = test system: RXF 393
[34] = test system: RXF 631
[35] = test system: SF-268
[36] = test system: SF-295
[37] = test system: SF-539
[38] = test system: SK-MEL-28
[39] = test system: SK-MEL-2
[40] = test system: SK-MEL-5
[41] = test system: SN12C
[42] = test system: SNB-19
[43] = test system: SNB-75
[44] = test system: SR
[45] = test system: SW-620
[46] = test system: TK-10
[47] = test system: U-251
[48] = test system: UACC-257
[49] = test system: UACC-62
[50] = test system: UO-31
[51] = test system: XF498

`CC(C)C1CN(C(=O)OCc2ccccc2)C2N1C(=O)C2(C)OCc1ccccc1` (stereo unspecified) was tested, and the GI50 [1] was 49.3 µM (inactive), the GI50 [2] was 26.8 µM (inactive) and the GI50 [3] was 29.2 µM (inactive). The GI50 [4] was 33 µM (inactive), the GI50 [5] was 28.1 µM (inactive) and the GI50 [6] was 19.1 µM (inactive). The GI50 [7] was 36 µM (inactive), the GI50 [8] was 31.3 µM (inactive) and the GI50 [9] was 35.3 µM (inactive). For the same molecule, the GI50 [10] was 34 µM (inactive), the GI50 [11] was 36.4 µM (inactive) and the GI50 [12] was 37.6 µM (inactive). The GI50 [13] was 44.8 µM, the GI50 [14] was 22.6 µM (inactive) and the GI50 [15] was 94.4 µM (inactive). For the same molecule, the GI50 [16] was 42.2 µM (inactive), the GI50 [17] was 35.9 µM (inactive) and the GI50 [18] was 34.8 µM (inactive). The GI50 [19] was 43.9 µM (inactive), the GI50 [20] was 27.2 µM (inactive) and the GI50 [21] was 28.7 µM (inactive). For the same molecule, the GI50 [22] was 36.1 µM (inactive), the GI50 [23] was 32.4 µM (inactive) and the GI50 [24] was 24.4 µM (inactive). For the same molecule, the GI50 [25] was 31.8 µM (inactive), the GI50 [26] was 22 µM (inactive) and the GI50 [27] was 24.5 µM (inactive). The GI50 [28] was 21.6 µM (inactive), the GI50 [29] was > 100 µM (inactive) and the GI50 [30] was 41.9 µM (inactive). The GI50 [31] was 45.4 µM (inactive), the GI50 [32] was 21.4 µM (inactive) and the GI50 [33] was 21.4 µM (inactive). The GI50 [34] was 40.6 µM (inactive), the GI50 [35] was 44.6 µM (inactive) and the GI50 [36] was 34.8 µM (inactive). For the same molecule, the GI50 [37] was 56 µM (inactive), the GI50 [38] was > 100 µM (inactive) and the GI50 [39] was 28.2 µM (inactive). For the same molecule, the GI50 [40] was 16 µM (inactive), the GI50 [41] was 48.6 µM (inactive) and the GI50 [42] was 46.7 µM (inactive). For the same molecule, the GI50 [43] was 16.7 µM (inactive), the GI50 [44] was 29.2 µM (inactive) and the GI50 [45] was 40.9 µM (inactive). The GI50 [46] was 42.9 µM (inactive), the GI50 [47] was 41.7 µM (inactive) and the GI50 [48] was 28.2 µM (inactive). The GI50 [49] was 25.1 µM (inactive), the GI50 [50] was 20.3 µM (inactive) and the GI50 [51] was 11.7 µM (inactive).
